Measurements: PubChem BioAssay AID1919010 (Molecular Pharmacology Branch, DTP, NCI, 2023)
Values joined by “and” are separate entries in the source; they are usually repeats but may differ in a detail not shown here. Equal entries are not always repeated.

Test system: Hs578T complex spheroid growth, percent test/control
Experiment: Anticancer human tumor Hs578T cell line growth inhibition [AhR];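 further: luminescent viability signal as a proxy for spheroid growth; spheroids exposed to agents for one week after three days of growth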
Details: for viability, T/C: stronger effect = lower value; active means viability on the fitted dose curve at most 10% of control; inactive means the rest
Description: Multicellular complex tumor spheroid response to aryl hydrocarbon receptor antagonists in combination with a variety of drugs and investigational agents in selected tumor cell lines
The current study was undertaken to assess response to aryl hydrocarbon receptor antagonists in combination with standard-of-care drugs and investigational agents in solid tumor complex spheroid models. Complex spheroids include a stromal component modeled by human endothelial cells (HUVEC) and fibroblasts modeled by human mesenchymal stem cells (MSCs). The concentration ranges selected for each drug and investigational agent were based upon clinically achievable concentrations if the clinical Cmax of the agent was known.
Compounds. The drugs and investigational agents: BAY 2416964 (NSC825713), GNF351 (NSC835774), CH-223191 (NSC835775), CPI-455 (NSC825282), aza-TdCyd (NSC777586), decitabine (NSC127716), belinostat (NSC758774), entinostat (NSC756642), pevonedistat (NSC761192), tazemetostat (NSC777109), talazoparib (NSC765396), olaparib (NSC753686), selinexor (NSC780203), nedisertib (M3814, NSC802822), bortezomib (NSC756655), venetoclax (NSC766270), doxorubicin (NSC123127), elimusertib (BAY189344, NSC800525), ceralasertib (AZD6738, NSC777638), TAK-243 (NSC785004), alisertib (NSC759677), etoposide (NSC141540), topotecan (NSC609699), eribulin (NSC707389), gemcitabine (NSC613327), carboplatin (NSC241240), cisplatin (NSC119875), and SN-38 (NSC673596) were obtained from the National Cancer Institute (NCI) Developmental Therapeutics Program Chemical Repository (32). The FDA-approved anticancer drug set is available from the Developmental Therapeutics Program at https://dtp.cancer.gov/organization/dscb/obtaining/available plates.htm. […] The stock solutions were prepared in dimethyl sulfoxide (DMSO, Sigma-Aldrich, St. Louis, MO, cat. D2650), except for the platinum compounds which were prepared in saline (Quality Biological, Gaithersburg, MD, cat. 114-055-101), at 800-fold the tested concentration and stored at -70 degrees C prior to their use. All drugs and investigational agents were tested over a range starting from a high concentration at or near the clinical Cmax and decreasing in half-log increments. If the clinical Cmax for an agent had not been determined, the highest concentration tested was 10 microM (Table 1).
Cell Culture. All cells were maintained in an incubator at 37 degrees C and 5% CO2 with 95% humidity. The PDC lines were cultured according to standard operating procedures established by the NCI PDMR (https://pdmr.cancer.gov). Briefly, all PDCs were thawed and cultured in Matrigel-coated flasks prepared with a working solution of 1X Ham's F-12 nutrient mix, without supplementation (Invitrogen, Waltham, MA, cat. 11765054), 100 U/mL penicillin-streptomycin (Invitrogen, cat. 15140122), and 2.5% Matrigel (Corning Inc., Corning, NY, cat. 354248) for the first three passages. All PDCs were cultured in complete DMEM/F-12 media containing advanced DMEM/F-12 (Invitrogen, cat. 12634028), 4.9% defined fetal bovine serum, heat inactivated (HyClone Laboratories Inc., Logan, UT, cat. SH30070.03HI), 389 ng/mL hydrocortisone (Sigma-Aldrich, cat. H4001), 9.7 ng/mL human EGF recombinant protein (Invitrogen, cat. PHG0313), 23.4 microg/mL adenine (Sigma-Aldrich, cat. A2786), 97.3 U/mL penicillin-streptomycin (Invitrogen, cat. 15140122), 1.9 mM L-glutamine (Invitrogen, cat. 25030081), and 9.7 microM Y-27632 dihydrochloride (Tocris Bioscience, Bristol, United Kingdom, cat. 1254). The PDCs were cultured in complete DMEM/F12 media without 10 microM Y-27632 dihydrochloride for at least two passages prior to the screen. The established cell lines NCI-H1341 and […] were cultured in DMEM/F-12, HEPES (Invitrogen, cat. 11330032), 5% defined fetal bovine serum (HyClone Laboratories Inc., cat. SH30070.03), ITS premix universal culture supplement [insulin (5 microg/mL), transferrin (5 microg/mL), and selenious acid (5 ng/mL)] […]

[1] = curve of first compound, second compound 0.1 µM
[2] = curve of first compound, second compound 0.316 µM
[3] = curve of first compound, second compound 1 µM
[4] = curve of first compound, second compound 3.16 µM
[5] = curve of first compound, second compound 10 µM
[6] = second compound 0.1 µM, first compound 0.0316 µM
[7] = second compound 0.1 µM, first compound 0.1 µM
[8] = second compound 0.1 µM, first compound 0.316 µM
[9] = second compound 0.1 µM, first compound 1 µM
[10] = second compound 0.1 µM, first compound 3.16 µM
[11] = second compound 0.1 µM, first compound 10 µM
[12] = second compound 0.316 µM, first compound 0.0316 µM
[13] = second compound 0.316 µM, first compound 0.1 µM
[14] = second compound 0.316 µM, first compound 0.316 µM
[15] = second compound 0.316 µM, first compound 1 µM
[16] = second compound 0.316 µM, first compound 3.16 µM
[17] = second compound 0.316 µM, first compound 10 µM
[18] = second compound 1 µM, first compound 0.0316 µM
[19] = second compound 1 µM, first compound 0.1 µM
[20] = second compound 1 µM, first compound 0.316 µM
[21] = second compound 1 µM, first compound 1 µM
[22] = second compound 1 µM, first compound 3.16 µM
[23] = second compound 1 µM, first compound 10 µM
[24] = second compound 3.16 µM, first compound 0.0316 µM
[25] = second compound 3.16 µM, first compound 0.1 µM
[26] = second compound 3.16 µM, first compound 0.316 µM
[27] = second compound 3.16 µM, first compound 1 µM
[28] = second compound 3.16 µM, first compound 3.16 µM
[29] = second compound 3.16 µM, first compound 10 µM
[30] = second compound 10 µM, first compound 0.0316 µM
[31] = second compound 10 µM, first compound 0.1 µM
[32] = second compound 10 µM, first compound 0.316 µM
[33] = second compound 10 µM, first compound 1 µM
[34] = second compound 10 µM, first compound 3.16 µM
[35] = second compound 10 µM, first compound 10 µM

CC(C)CC(NC(=O)C(Cc1ccccc1)NC(=O)c1cnccn1)B(O)O (centres undefined) + Cc1ccccc1N=Nc1ccc(NC(=O)c2ccnn2C)c(C)c1
5.01 nM: IC50 [1]
5.47 nM: IC50 [3]
3.14 nM: IC50 [5]
4.98 nM: IC50 [2]
inactive: viability, T/C (second compound 0.1 µM, first compound 0.000949 µM) 107% | viability, T/C (second compound 0.1 µM, first compound 0.003 µM) 80.8% | viability, T/C (second compound 0.1 µM, first compound 0.00949 µM) 11.7% | viability, T/C (second compound 0.316 µM, first compound 0.000949 µM) 94.6% | viability, T/C (second compound 0.316 µM, first compound 0.003 µM) 78.1% | viability, T/C (second compound 0.316 µM, first compound 0.00949 µM) 14.1% | viability, T/C (second compound 1 µM, first compound 0.000949 µM) 98.2% | viability, T/C (second compound 1 µM, first compound 0.003 µM) 86.1% | viability, T/C (second compound 1 µM, first compound 0.00949 µM) 16.9% | viability, T/C (second compound 3.16 µM, first compound 0.000949 µM) 88.6% | viability, T/C (second compound 3.16 µM, first compound 0.003 µM) 68.7% | viability, T/C (second compound 3.16 µM, first compound 0.00949 µM) 16.6% | viability, T/C (second compound 10 µM, first compound 0.000949 µM) 62.1% | viability, T/C (second compound 10 µM, first compound 0.003 µM) 51.2% | viability, T/C (second compound 10 µM, first compound 0.00949 µM) 16.6%
active: viability, T/C (second compound 0.1 µM, first compound 0.03 µM) 0.3% | viability, T/C (second compound 0.1 µM, first compound 0.0949 µM) 0.81% | viability, T/C (second compound 0.1 µM, first compound 0.3 µM) 0.36% | viability, T/C (second compound 0.316 µM, first compound 0.03 µM) 0.31% | viability, T/C (second compound 0.316 µM, first compound 0.0949 µM) 0.28% | viability, T/C (second compound 0.316 µM, first compound 0.3 µM) 0.33% | viability, T/C (second compound 1 µM, first compound 0.03 µM) 0.65% | viability, T/C (second compound 1 µM, first compound 0.0949 µM) 0.44% | viability, T/C (second compound 1 µM, first compound 0.3 µM) 1.31% | viability, T/C (second compound 3.16 µM, first compound 0.03 µM) 0.34% | viability, T/C (second compound 3.16 µM, first compound 0.0949 µM) 0.39% | viability, T/C (second compound 3.16 µM, first compound 0.3 µM) 0.32% | viability, T/C (second compound 10 µM, first compound 0.03 µM) 0.45% | viability, T/C (second compound 10 µM, first compound 0.0949 µM) 0.83% | viability, T/C (second compound 10 µM, first compound 0.3 µM) 0.53%
4.53 nM: IC50 [4]

COc1cccc2c1C(=O)c1c(O)c3c(c(O)c1C2=O)CC(O)(C(=O)CO)CC3OC1CC(N)C(O)C(C)O1 (centres undefined) + Cc1ccccc1N=Nc1ccc(NC(=O)c2ccnn2C)c(C)c1
353 nM: IC50 [4]
373 nM: IC50 [3]
inactive: viability, T/C [6] 89.8% | viability, T/C [7] 72.5% | viability, T/C [8] 44.7% | viability, T/C [9] 10% | viability, T/C [12] 67.9% | viability, T/C [13] 64.2% | viability, T/C [14] 48.3% | viability, T/C [18] 80.4% | viability, T/C [19] 75% | viability, T/C [20] 56.3% | viability, T/C [21] 14.4% | viability, T/C [24] 68.7% | viability, T/C [25] 63.2% | viability, T/C [26] 54.5% | viability, T/C [27] 10.2% | viability, T/C [30] 65.2% | viability, T/C [31] 64.4% | viability, T/C [32] 56.6%
368 nM: IC50 [5]
240 nM: IC50 [1]
279 nM: IC50 [2]
active: viability, T/C [10] 2.16% | viability, T/C [11] 2.24% | viability, T/C [15] 9.72% | viability, T/C [16] 1.94% | viability, T/C [17] 2.15% | viability, T/C [22] 1.79% | viability, T/C [23] 2.15% | viability, T/C [28] 1.55% | viability, T/C [29] 1.85% | viability, T/C [33] 6.88% | viability, T/C [34] 1.17% | viability, T/C [35] 1.93%

CCc1c2c(nc3ccc(O)cc13)-c1cc3c(c(=O)n1C2)COC(=O)[C@]3(O)CC
inactive: viability, T/C (compound 0.000949 µM) 83.3% and 77.6% and 78.6% | viability, T/C (compound 0.003 µM) 70.5% and 82.2% and 73.2% | viability, T/C (compound 0.00949 µM) 74% and 64.3% and 76.1% | viability, T/C (compound 0.03 µM) 64.6% and 63.2% and 75% | viability, T/C (compound 0.0949 µM) 62.3% and 56.5% and 61.9% | viability, T/C (compound 0.3 µM) 47.1% and 38.3% and 43.4%
253 nM and 124 nM and 206 nM: IC50 (curve of compound)

COc1cc(Nc2ncc3c(n2)-c2ccc(Cl)cc2C(c2c(F)cccc2OC)=NC3)ccc1C(=O)O
inactive: viability, T/C (compound 0.0316 µM) 78.2% and 84.4% and 89.2% | viability, T/C (compound 0.1 µM) 92.6% and 82.2% and 94% | viability, T/C (compound 0.316 µM) 97% and 80.2% and 85.2% | viability, T/C (compound 1 µM) 96.8% and 87% and 87.8% | viability, T/C (compound 3.16 µM) 89.2% and 70.9% and 81% | viability, T/C (compound 10 µM) 47.3% and 34.7% and 44.9%
9280 nM and 6150 nM and 8470 nM: IC50 (curve of compound)

Nc1ccccc1NC(=O)c1ccc(CNC(=O)OCc2cccnc2)cc1 + CC(CO)NC(=O)c1cc(-c2ccc(Cl)cc2)nn(-c2cnn(C)c2)c1=O
1260 nM: IC50 [5]
inactive: viability, T/C [6] 124% | viability, T/C [7] 122% | viability, T/C [8] 108% | viability, T/C [9] 68.3% | viability, T/C [10] 24% | viability, T/C [12] 111% | viability, T/C [13] 118% | viability, T/C [14] 111% | viability, T/C [15] 65.8% | viability, T/C [16] 30% | viability, T/C [18] 121% | viability, T/C [19] 118% | viability, T/C [20] 112% | viability, T/C [21] 64.3% | viability, T/C [22] 29.6% | viability, T/C [24] 115% | viability, T/C [25] 118% | viability, T/C [26] 109% | viability, T/C [27] 70.9% | viability, T/C [28] 25.9% | viability, T/C [30] 111% | viability, T/C [31] 106% | viability, T/C [32] 97.2% | viability, T/C [33] 58.2% | viability, T/C [34] 16%
1660 nM: IC50 [3]
1700 nM: IC50 [2]
active: viability, T/C [11] 1.8% | viability, T/C [17] 1.83% | viability, T/C [23] 2.16% | viability, T/C [29] 2.04% | viability, T/C [35] 0.84%
1720 nM: IC50 [4]
1610 nM: IC50 [1]
